In patent US4472388A, “N-Methanesulfonic acid derivatives of 3-O-demethylistamycin B and production thereof” (Zaidan Hojin Biseibutsu Kagaku Kenkyu Kai, priority 1982, dated 1984):
≈ marks a conversion by molar mass, not a printed value.

How the values were obtained:
[1] = tested on: Pseudomonas aeruginosa TI-13; test: Minimum inhibitory concentration, serial dilution on Mueller-Hinton agar; assay type: cell-based; conditions: for Minimum inhibitory concentration: Pseudomonas aeruginosa TI-13, Mueller-Hinton agar, 37° C., 17 hours
Description: (§1) Minimum inhibitory concentrations (mcg/ml) of the parent 3-O-demethylistamycin B were also estimated in the same manner for the comparison purpose and also are shown in Table 1.

[2] = tested on: Escherichia coli JR66/W677; test: as above; assay type: cell-based; conditions: for Minimum inhibitory concentration: Escherichia coli JR66/W677, Mueller-Hinton agar, 37° C., 17 hours
Description: as §1

[3] = tested on: Staphylococcus aureus 209P; test: as above; assay type: cell-based; conditions: 37° C., 17 hours
Description: as §1

[4] = tested on: Pseudomonas aeruginosa H9; test: as above; assay type: cell-based; conditions: 37° C., 17 hours
Description: as §1

[5] = tested on: Staphylococcus aureus Ap01; test: as above; assay type: cell-based; conditions: 37° C., 17 hours
Description: as §1

[6] = tested on: Providencia Pv 16; test: as above; assay type: cell-based; conditions: 17 hours; for Minimum inhibitory concentration: 37° C.
Description: as §1

[7] = tested on: Pseudomonas aeruginosa GN315; test: as above; assay type: cell-based; conditions: for Minimum inhibitory concentration: Pseudomonas aeruginosa GN315, Mueller-Hinton agar, 37° C., 17 hours
Description: as §1

[8] = tested on: Serratia marcescens; test: as above; assay type: cell-based; conditions: for Minimum inhibitory concentration: Mueller-Hinton agar, 37° C., 17 hours
Description: as §1

[9] = tested on: Pseudomonas aeruginosa A3; test: as above; assay type: cell-based; conditions: for Minimum inhibitory concentration: Pseudomonas aeruginosa A3, Mueller-Hinton agar, 37° C., 17 hours
Description: as §1

[10] = Acute toxicity, intravenous administration in mice; assay type: in vivo; conditions: ICR mice
Experimental: A test compound was diissolved in 0.25 ml of a physiological saline solution and the solution of the test compound so prepared was intravenously administered into a series of mouse groups each consisting of six mice (ICR strain, adult female, body weight 20 g±0.5 g) as the test animal, […] Acute toxicity of 3-O-demethylistamycin B was also estimated in the same manner as above for the comparison purpose. […]

[11] = tested on: Escherichia coli K-12 LA290 R55; test: Minimum inhibitory concentration, serial dilution on Mueller-Hinton agar; assay type: cell-based
Description: as §1

[12] = tested on: Escherichia coli K-12 C600 R135; test: as above; assay type: cell-based; conditions: K12C600R135, 37° C., 17 hours
Description: as §1

[13] = tested on: Escherichia coli JR225; test: as above; assay type: cell-based; conditions: JR225, 17 h, read-out: Minimum inhibitory concentration
Description: as §1

[14] = tested on: Escherichia coli K-12; test: as above; assay type: cell-based; conditions: K12, 37° C., 17 hours
Description: as §1

[15] = tested on: Escherichia coli K-12 ML1629; test: as above; assay type: cell-based; conditions: K12ML1629, 37° C., 17 hours
Description: as §1

[16] = tested on: Escherichia coli K-12 R5; test: as above; assay type: cell-based
Description: as §1

[17] = tested on: gram-negative and gram-positive bacteria, including Pseudomonas aeruginosa; conditions: cited earlier filings; cited from earlier work

Molecule | Minimum inhibitory concentration [1] | Minimum inhibitory concentration [2] | Minimum inhibitory concentration [3] | Minimum inhibitory concentration [4] | Minimum inhibitory concentration [5] | Minimum inhibitory concentration [6] | Minimum inhibitory concentration [7] | Minimum inhibitory concentration [8] | Minimum inhibitory concentration [9] | also measured
3-O-demethylistamycin B-mono-N-methanesulfonic acid sodium salt [Compound (1)] | 6.25 µg/mL | 6.25 µg/mL | 0.78 µg/mL | 12.5 µg/mL | 1.56 µg/mL | 3.13 µg/mL | 12.5 µg/mL | 6.25 µg/mL | 0.78 µg/mL | 
3-O-demethylistamycin B-di-N-methanesulfonic acid sodium salt [Compound (2)] | 6.25 µg/mL | 6.25 µg/mL | 1.56 µg/mL | 12.5 µg/mL | 1.56 µg/mL | 3.13 µg/mL | 6.25 µg/mL | 12.5 µg/mL | 3.13 µg/mL | 
CNCC1CCC(N)C(OC2C(N)CC(O)C(N(C)C(=O)CN)C2O)O1 (centres unmarked) [3-O-demethylistamycin B] |  |  |  |  |  |  |  |  |  | death of mice ([10]; 320 mg/kg, within 24 hours): all mice died within 24 hours; LD50 ([10]; mouse, in vivo, adult female): 160 to 320 mg/kg; MIC ([1]; Pseudomonas aeruginosa, TI13, 17 h, read-out: Minimum inhibitory concentration): 6.25 µg/mL (≈ 16.6 µM); MIC ([11]; Escherichia coli, K12LA290R55, 17 h, read-out: Minimum inhibitory concentration): 0.78 µg/mL (≈ 2.08 µM); MIC [12]: 1.56 µg/mL (≈ 4.15 µM); MIC [13]: 0.78 µg/mL (≈ 2.08 µM); MIC ([2]; Escherichia coli, JR66/W677, 17 h, read-out: Minimum inhibitory concentration): 1.56 µg/mL (≈ 4.15 µM); MIC [3]: 0.39 µg/mL (≈ 1.04 µM); MIC [4]: 12.5 µg/mL (≈ 33.3 µM); MIC [5]: 0.39 µg/mL (≈ 1.04 µM); MIC [14]: 0.78 µg/mL (≈ 2.08 µM); MIC [15]: 1.56 µg/mL (≈ 4.15 µM); MIC ([6]; PV16, 37° C.): 0.78 µg/mL (≈ 2.08 µM); MIC ([16]; Escherichia coli, K12R5, 17 h, read-out: Minimum inhibitory concentration): 3.13 µg/mL (≈ 8.34 µM); MIC ([7]; Pseudomonas aeruginosa, GN315, 17 h, read-out: Minimum inhibitory concentration): 6.25 µg/mL (≈ 16.6 µM); MIC ([8]; 17 h, read-out: Minimum inhibitory concentration): 1.56 µg/mL (≈ 4.15 µM); MIC ([9]; Pseudomonas aeruginosa, A3, 17 h, read-out: Minimum inhibitory concentration): 0.2 µg/mL (≈ 0.533 µM); antibacterial activity [17]: high antibacterial activity
3-O-demethylistamycin B-tri-N-methanesulfonic acid sodium salt [Compound (3)] | 6.25 µg/mL | 6.25 µg/mL | 0.78 µg/mL | 12.5 µg/mL | 1.56 µg/mL | 3.13 µg/mL | 12.5 µg/mL | 12.5 µg/mL | 0.78 µg/mL | 
3-O-demethylistamycin B-tetra-N-methanesulfonic acid sodium salt [Compound (4)] | 25 µg/mL | 25 µg/mL | 1.56 µg/mL | 25 µg/mL | 3.13 µg/mL | 6.25 µg/mL | 25 µg/mL | 25 µg/mL | 1.56 µg/mL | Minimum inhibitory concentration ([11]; Escherichia coli K-12 LA290 R55, Mueller-Hinton agar, 37° C., 17 hours): 12.5 µg/mL; Minimum inhibitory concentration ([16]; Escherichia coli K-12 R5, Mueller-Hinton agar, 37° C., 17 hours): 25 µg/mL
